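96-well plates; 48 h exposure; 5 concentrations. Endpoints by linear interpolation between flanking doses. Not reached: highest tested concentration assigned. At the GI50, growth is halved.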 Calls of active or inactive are those of the source. No stated cut-off is given here; in the data, active = GI50 up to about 1.1 µM and inactive = higher.
Key:
Experiment in all cases: growth of human tumour cells (NCI), 48 h
HCT-15 = test system: HCT-15
RXF 393 = test system: RXF 393
K562 = test system: K562
SF-268 = test system: SF-268
ACHN = test system: ACHN
Hs-578T = test system: Hs-578T
NCI/ADR-RES = test system: NCI/ADR-RES
COLO 205 = test system: COLO 205
KM12 = test system: KM12
HOP-62 = test system: HOP-62
PC-3 = test system: PC-3
MCF7 = test system: MCF7
CCRF-CEM = test system: CCRF-CEM
UACC-257 = test system: UACC-257
UO-31 = test system: UO-31
SF-295 = test system: SF-295
IGROV-1 = test system: IGROV-1
T47D = test system: T47D
OVCAR-8 = test system: OVCAR-8
SNB-75 = test system: SNB-75
SNB-19 = test system: SNB-19
HCC 2998 = test system: HCC 2998
DU-145 = test system: DU-145
U-251 = test system: U-251
CAKI-1 = test system: CAKI-1
RPMI-8226 = test system: RPMI-8226
OVCAR-3 = test system: OVCAR-3
OVCAR-4 = test system: OVCAR-4
OVCAR-5 = test system: OVCAR-5
HL-60 = test system: HL-60
M14 = test system: M14
BT-549 = test system: BT-549
EKVX = test system: EKVX
SK-MEL-28 = test system: SK-MEL-28
NCI-H460 = test system: NCI-H460
SK-MEL-5 = test system: SK-MEL-5
LOX IMVI = test system: LOX IMVI
MDA-MB-435 = test system: MDA-MB-435
HT-29 = test system: HT-29
786-0 = test system: 786-0
MDA-N = test system: MDA-N
UACC-62 = test system: UACC-62
SN12C = test system: SN12C
SR = test system: SR
NCI-H226 = test system: NCI-H226
NCI-H23 = test system: NCI-H23
TK-10 = test system: TK-10
NCI-H522 = test system: NCI-H522
A549 = test system: A549
SK-OV-3 = test system: SK-OV-3
SW-620 = test system: SW-620
HCT-116 = test system: HCT-116
HOP-92 = test system: HOP-92
SK-MEL-2 = test system: SK-MEL-2
SF-539 = test system: SF-539
MDA-MB-231 = test system: MDA-MB-231
Malme-3M = test system: Malme-3M
MOLT-4 = test system: MOLT-4

With `C=C1C(=O)C2(C)OC2(C)C1C(=O)O` (stereo unspecified) the GI50 (HCT-15) was > 100 µM, the GI50 (RXF 393) was > 100 µM (inactive) and the GI50 (K562) was > 100 µM (inactive). The GI50 (SF-268) was > 100 µM (inactive), the GI50 (ACHN) was > 100 µM (inactive) and the GI50 (Hs-578T) was > 100 µM (inactive). The GI50 (NCI/ADR-RES) was > 100 µM (inactive), the GI50 (COLO 205) was > 100 µM (inactive) and the GI50 (KM12) was > 100 µM (inactive). The GI50 (HOP-62) was > 100 µM (inactive), the GI50 (PC-3) was > 100 µM (inactive) and the GI50 (MCF7) was > 100 µM (inactive). For the same compound, the GI50 (CCRF-CEM) was > 100 µM (inactive), the GI50 (UACC-257) was > 100 µM (inactive) and the GI50 (UO-31) was > 100 µM (inactive). For the same compound, the GI50 (SF-295) was > 100 µM (inactive), the GI50 (IGROV-1) was > 100 µM (inactive) and the GI50 (T47D) was > 100 µM (inactive). The GI50 (OVCAR-8) was > 100 µM (inactive), the GI50 (SNB-75) was > 100 µM (inactive) and the GI50 (SNB-19) was > 100 µM (inactive). The GI50 (HCC 2998) was > 100 µM (inactive), the GI50 (DU-145) was > 100 µM (inactive) and the GI50 (U-251) was > 100 µM (inactive). The GI50 (CAKI-1) was > 100 µM (inactive), the GI50 (RPMI-8226) was > 100 µM (inactive) and the GI50 (OVCAR-3) was > 100 µM (inactive). For the same compound, the GI50 (OVCAR-4) was > 100 µM (inactive), the GI50 (OVCAR-5) was > 100 µM (inactive) and the GI50 (HL-60) was > 100 µM (inactive). The GI50 (M14) was > 100 µM (inactive), the GI50 (BT-549) was > 100 µM (inactive) and the GI50 (EKVX) was > 100 µM (inactive). For the same compound, the GI50 (SK-MEL-28) was > 100 µM (inactive), the GI50 (NCI-H460) was > 100 µM (inactive) and the GI50 (SK-MEL-5) was > 100 µM (inactive). For the same compound, the GI50 (LOX IMVI) was > 100 µM (inactive), the GI50 (MDA-MB-435) was > 100 µM (inactive) and the GI50 (HT-29) was > 100 µM (inactive). The GI50 (786-0) was > 100 µM (inactive), the GI50 (MDA-N) was > 100 µM (inactive) and the GI50 (UACC-62) was > 100 µM (inactive). The GI50 (SN12C) was > 100 µM (inactive), the GI50 (SR) was > 100 µM (inactive) and the GI50 (NCI-H226) was > 100 µM (inactive). The GI50 (NCI-H23) was > 100 µM (inactive), the GI50 (TK-10) was > 100 µM (inactive) and the GI50 (NCI-H522) was > 100 µM (inactive). For the same compound, the GI50 (A549) was > 100 µM (inactive), the GI50 (SK-OV-3) was > 100 µM (inactive) and the GI50 (SW-620) was > 100 µM (inactive). The GI50 (HCT-116) was > 100 µM (inactive), the GI50 (HOP-92) was > 100 µM (inactive) and the GI50 (SK-MEL-2) was > 100 µM (inactive). For the same compound, the GI50 (SF-539) was > 100 µM (inactive) and the GI50 (MDA-MB-231) was > 100 µM (inactive).
In the case of `CC(=O)C(=C(c1ccccc1)c1ccccc1)c1ccccc1`, the GI50 (HCT-15) is reported as 86.7 µM, the GI50 (RXF 393) is reported as > 100 µM (inactive) and the GI50 (K562) is reported as 62.7 µM (inactive). For the same compound, the GI50 (SF-268) was > 100 µM (inactive), the GI50 (ACHN) was > 100 µM (inactive) and the GI50 (Hs-578T) was > 100 µM (inactive). For the same compound, the GI50 (NCI/ADR-RES) was > 100 µM (inactive), the GI50 (Malme-3M) was > 100 µM (inactive) and the GI50 (COLO 205) was > 100 µM (inactive). For the same compound, the GI50 (KM12) was > 100 µM (inactive), the GI50 (HOP-62) was > 100 µM (inactive) and the GI50 (PC-3) was 45.2 µM (inactive). The GI50 (MCF7) was > 100 µM (inactive), the GI50 (CCRF-CEM) was 40.7 µM (inactive) and the GI50 (UACC-257) was > 100 µM (inactive). The GI50 (UO-31) was > 100 µM (inactive), the GI50 (SF-295) was > 100 µM (inactive) and the GI50 (MOLT-4) was 87.5 µM (inactive). For the same compound, the GI50 (T47D) was > 100 µM (inactive), the GI50 (OVCAR-8) was > 100 µM (inactive) and the GI50 (SNB-75) was 87.7 µM (inactive). For the same compound, the GI50 (SNB-19) was > 100 µM (inactive), the GI50 (HCC 2998) was > 100 µM (inactive) and the GI50 (DU-145) was > 100 µM (inactive). The GI50 (U-251) was > 100 µM (inactive), the GI50 (RPMI-8226) was 52.6 µM (inactive) and the GI50 (OVCAR-3) was > 100 µM (inactive). The GI50 (OVCAR-4) was 70 µM (inactive), the GI50 (OVCAR-5) was > 100 µM (inactive) and the GI50 (HL-60) was 20.5 µM (inactive). For the same compound, the GI50 (M14) was > 100 µM (inactive), the GI50 (BT-549) was > 100 µM (inactive) and the GI50 (EKVX) was 15.6 µM (inactive). The GI50 (SK-MEL-28) was > 100 µM (inactive), the GI50 (NCI-H460) was > 100 µM (inactive) and the GI50 (SK-MEL-5) was > 100 µM (inactive). The GI50 (LOX IMVI) was > 100 µM (inactive), the GI50 (MDA-MB-435) was > 100 µM (inactive) and the GI50 (HT-29) was > 100 µM (inactive). The GI50 (786-0) was > 100 µM (inactive), the GI50 (MDA-N) was > 100 µM (inactive) and the GI50 (UACC-62) was > 100 µM (inactive). For the same compound, the GI50 (SN12C) was > 100 µM (inactive), the GI50 (SR) was 31.8 µM (inactive) and the GI50 (NCI-H226) was > 100 µM (inactive). For the same compound, the GI50 (NCI-H23) was > 100 µM (inactive), the GI50 (TK-10) was > 100 µM (inactive) and the GI50 (NCI-H522) was > 100 µM (inactive). The GI50 (A549) was > 100 µM (inactive), the GI50 (SK-OV-3) was > 100 µM (inactive) and the GI50 (SW-620) was > 100 µM (inactive). For the same compound, the GI50 (HCT-116) was > 100 µM (inactive), the GI50 (HOP-92) was > 100 µM (inactive) and the GI50 (SF-539) was > 100 µM (inactive). For the same compound, the GI50 (MDA-MB-231) was > 100 µM (inactive).
